The target of experiment [1] is T1, 5-HT3A-A5 (M3M4 loop replaced by five alanines) (Mus musculus, UniProt P23979).
T1 construct: expressed in transfected cells; host or cells: Xenopus laevis oocytes injected with mRNA
T1 sequence (P23979 with tags, fused parts or gaps isoform P23979-2 limits assumed): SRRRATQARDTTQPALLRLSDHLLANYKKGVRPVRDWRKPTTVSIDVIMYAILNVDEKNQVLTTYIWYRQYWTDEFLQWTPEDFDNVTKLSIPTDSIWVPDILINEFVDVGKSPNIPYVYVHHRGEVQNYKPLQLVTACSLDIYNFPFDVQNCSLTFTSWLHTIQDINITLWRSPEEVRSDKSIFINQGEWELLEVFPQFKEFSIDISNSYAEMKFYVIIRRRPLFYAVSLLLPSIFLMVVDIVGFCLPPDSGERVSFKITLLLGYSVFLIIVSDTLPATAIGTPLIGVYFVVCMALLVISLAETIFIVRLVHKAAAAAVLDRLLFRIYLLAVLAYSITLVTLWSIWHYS
The experiment can be described thus: Two-electrode voltage clamp, oocytes expressing 5-HT3A-A5. Format: cell-based. The source says: (§1) The mouse 5-HT3A cDNA with an N-terminal V5 epitope tag was cloned into the pXOON vector as previously described, and is referred to in this paper as “wild-type” (WT). The starting construct for all of the M3M4 loop replacement constructs used in this work was the 5-HT3A-ΔM3M4 construct formed by splicing the cytoplasmic end of M3 (M3-LVHK/QDLQRP…) to the cytoplasmic end of M4 (…WLRVGY/VLDRLL-M4). The splice was made at the site of the “/” to yield the sequence M3-LVHK/VLDRLL-M4 [34]. This removed 115 residues predicted to form the M3M4 loop.
The construction of the 5-HT3A-glvM3M4 chimera with the 5-HT3A M3M4 loop replaced by the GLIC heptapeptide M3M4 loop (SQPARAA) was described previously. Point mutations, alanine and Gly-Ser-Ala insertions into the 5-HT3A-ΔM3M4 construct were generated with the Quikchange site directed mutagenesis procedure (Stratagene, La Jolla, CA). The entire coding region of all mutant constructs was verified by DNA sequencing (Albert Einstein College of Medicine DNA Sequencing Facility). The pXOON plasmid was linearized using NheI and capped mRNA prepared with T7 RNA polymerase (mMessage mMachine, Ambion, Austin, TX).
Use of Xenopus laevis in this study was carried out in strict accordance with the recommendations in the Guide for the Care and Use of Laboratory Animals of the National Institutes of Health. The protocol was approved by the Albert Einstein College of Medicine Animal Care and Use Committee (Protocol Number: 20081201). All surgery was performed under tricaine anesthesia, and all efforts were made to minimize suffering. Oocyctes were harvested from Xenopus (Nasco Science, Fort Atkinson, WI) anesthetized with 0.15% tricaine. […]
(§2) Currents were recorded under two-electrode voltage clamp from oocytes 2–5 d post-injection as described previously. […]
(§3) Desensitization rates were determined by fitting a single exponential decay function to the current data with Prism 4 software (GraphPad Software). Significant differences compared with wild-type were determined by a one-way ANOVA (p<0.05) using Dunnett's multiple comparison post-hoc test (p<0.05). […]
(In general: Two-electrode voltage clamp holds a large cell at a set potential and records current.)

Experiment [2] has as its target T2, 5-HT3A ESQPA-M3M4 loop construct (Mus musculus, UniProt P23979).
T2 construct: expressed in transfected cells; host or cells: Xenopus laevis oocytes injected with mRNA
The experiment can be described thus: Two-electrode voltage clamp, oocytes expressing ESQPA-M3M4 loop construct. Format: cell-based. The note with it: up to 50 µM 5-HT, Xenopus oocytes.
Text: as §1
(§4) The construction of the 5-HT3A-glvM3M4 chimera with the 5-HT3A M3M4 loop replaced by the GLIC heptapeptide M3M4 loop (SQPARAA) was described previously. Point mutations, alanine and Gly-Ser-Ala insertions into the 5-HT3A-ΔM3M4 construct were generated with the Quikchange site directed mutagenesis procedure (Stratagene, La Jolla, CA). […]
as §2, §3

For experiment [3], the target named is T3, 5-HT3A M3M4 loop SQPAEAA construct (Mus musculus, UniProt P23979).
T3 construct: expressed in transfected cells; host or cells: Xenopus laevis oocytes injected with mRNA
Briefly: Two-electrode voltage clamp, oocytes expressing SQPAEAA loop construct. The class given is cell-based. The note with it: 10 µM 5-HT, Xenopus oocytes.
Text: as §1, §4, §2, §3

Experiment [4] concerns the target T4, 5-HT3A M3M4 loop SQPAAAA construct (Mus musculus, UniProt P23979).
T4 construct: expressed in transfected cells; host or cells: Xenopus laevis oocytes injected with mRNA
The experiment can be described thus: Two-electrode voltage clamp, oocytes expressing SQPAAAA loop construct. Particulars: 10 µM 5-HT, Xenopus oocytes. The class given is cell-based.
Text: as §1, §4, §2, §3

The target in experiment [5] is T5, 5-HT3A M3M4 loop SQAPARA construct (Mus musculus, UniProt P23979).
T5 construct: expressed in transfected cells; host or cells: Xenopus laevis oocytes injected with mRNA
The experiment can be described thus: Two-electrode voltage clamp, oocytes expressing SQAPARA loop construct. Format: cell-based. The note with it: 10 µM 5-HT, Xenopus oocytes.
Text: as §1, §4, §2, §3

In experiment [6] the target is T6, 5-HT3A M3M4 loop AAPARAA construct (Mus musculus, UniProt P23979).
T6 construct: expressed in transfected cells; host or cells: Xenopus laevis oocytes injected with mRNA
Briefly: Two-electrode voltage clamp, oocytes expressing AAPARAA loop construct. Particulars: 10 µM 5-HT, Xenopus oocytes. Format: cell-based.
Text: as §1, §4, §2, §3

The target in experiment [7] is T7, 5-HT3A M3M4 loop GSA mutant (Mus musculus, UniProt P23979, DELINS338-452GSA).
T7 construct: expressed in transfected cells; host or cells: Xenopus laevis oocytes injected with mRNA
Briefly: Two-electrode voltage clamp, oocytes expressing GSA M3M4 mutant. Format: cell-based. Particulars: 10 µM 5-HT, Xenopus oocytes.
Text: as §1, §4, §2, §3

Experiment [8] deals with T8, 5-HT3A M3M4 loop GSAGSA mutant (Mus musculus, UniProt P23979).
T8 construct: expressed in transfected cells; host or cells: Xenopus laevis oocytes injected with mRNA
Briefly: Two-electrode voltage clamp, oocytes expressing GSAGSA M3M4 mutant. The class given is cell-based. Particulars: 10 µM 5-HT, Xenopus oocytes.
Text: as §1, §4, §2, §3

Experiment [9] addresses T9, 5-HT3A construct with single proline in place of the single alanine (Mus musculus, UniProt P23979, DELINS338-452P).
T9 construct: expressed in transfected cells; host or cells: Xenopus laevis oocytes injected with mRNA
Briefly: Two-electrode voltage clamp, oocytes expressing single proline loop construct. Format: cell-based. Particulars: Xenopus oocytes, data not shown.
Text: as §1, §4, §2, §3

In the next experiment the target is T10, 5-HT3A-A1 (Mus musculus, UniProt P23979, DELINS338-452A).
T10 construct: expressed in transfected cells; host or cells: Xenopus laevis oocytes injected with mRNA
The experiment can be described thus: Radioactive 5-HT binding to oocytes expressing 5-HT3A-A1. The note with it: 150 nM [3H]5-HT + 10 µM 5-HT, 5 min, 45 s cold wash. The protocol: Assays were terminated by five washes with ice cold CFFR buffer, followed by solubilization of the oocytes individually with 200 µl 5% SDS. Total wash time was 45 s. […] All data points represent the average of at least fifteen individual oocytes derived from three separate oocyte isolations.
To determine the extent of non-specific binding, all binding experiments were performed in parallel with diethylpyrocarbonate-(DEPC)-treated-water injected oocytes or uninjected oocytes.

Each structure is given as a SMILES string.

Data on one compound can be found in publication PMC3335078, “Length and Amino Acid Sequence of Peptides Substituted for the 5-HT3A Receptor M3M4 Loop May Affect Channel Expression and Desensitization” (PLoS ONE, 2012).

T4 sequence (P23979 with tags, fused parts or gaps): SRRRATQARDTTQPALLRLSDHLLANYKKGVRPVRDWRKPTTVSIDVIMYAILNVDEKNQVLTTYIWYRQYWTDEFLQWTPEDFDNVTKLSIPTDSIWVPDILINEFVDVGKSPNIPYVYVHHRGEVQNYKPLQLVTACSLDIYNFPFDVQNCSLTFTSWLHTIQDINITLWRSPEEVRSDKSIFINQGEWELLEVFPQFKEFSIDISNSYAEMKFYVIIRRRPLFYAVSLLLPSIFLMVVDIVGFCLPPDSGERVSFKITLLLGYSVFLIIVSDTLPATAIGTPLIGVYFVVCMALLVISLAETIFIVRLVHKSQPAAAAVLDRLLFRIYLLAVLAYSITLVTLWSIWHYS
T6 sequence (P23979 with tags, fused parts or gaps): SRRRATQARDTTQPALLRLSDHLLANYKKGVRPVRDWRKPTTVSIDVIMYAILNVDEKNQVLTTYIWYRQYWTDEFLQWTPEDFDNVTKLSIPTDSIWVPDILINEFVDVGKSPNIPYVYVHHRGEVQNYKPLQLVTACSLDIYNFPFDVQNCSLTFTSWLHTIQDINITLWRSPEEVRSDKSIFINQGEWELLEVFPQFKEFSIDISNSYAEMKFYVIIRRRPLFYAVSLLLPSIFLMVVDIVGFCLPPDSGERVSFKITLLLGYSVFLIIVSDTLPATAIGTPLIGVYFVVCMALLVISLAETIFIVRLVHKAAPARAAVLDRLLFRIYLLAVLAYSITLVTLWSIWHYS
T10 sequence (P23979 with tags, fused parts or gaps isoform P23979-2 DELINS338-452A limits assumed): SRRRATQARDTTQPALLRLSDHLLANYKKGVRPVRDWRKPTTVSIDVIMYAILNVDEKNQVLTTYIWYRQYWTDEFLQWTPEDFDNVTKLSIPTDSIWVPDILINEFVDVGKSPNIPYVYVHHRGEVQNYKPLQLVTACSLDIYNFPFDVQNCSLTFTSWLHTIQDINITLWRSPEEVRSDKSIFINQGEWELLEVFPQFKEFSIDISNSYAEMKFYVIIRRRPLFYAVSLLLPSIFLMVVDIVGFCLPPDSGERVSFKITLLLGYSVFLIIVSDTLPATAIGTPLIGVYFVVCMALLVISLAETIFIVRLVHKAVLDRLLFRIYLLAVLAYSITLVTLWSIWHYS
T8 sequence (P23979 with tags, fused parts or gaps isoform P23979-2 limits assumed, change not shown): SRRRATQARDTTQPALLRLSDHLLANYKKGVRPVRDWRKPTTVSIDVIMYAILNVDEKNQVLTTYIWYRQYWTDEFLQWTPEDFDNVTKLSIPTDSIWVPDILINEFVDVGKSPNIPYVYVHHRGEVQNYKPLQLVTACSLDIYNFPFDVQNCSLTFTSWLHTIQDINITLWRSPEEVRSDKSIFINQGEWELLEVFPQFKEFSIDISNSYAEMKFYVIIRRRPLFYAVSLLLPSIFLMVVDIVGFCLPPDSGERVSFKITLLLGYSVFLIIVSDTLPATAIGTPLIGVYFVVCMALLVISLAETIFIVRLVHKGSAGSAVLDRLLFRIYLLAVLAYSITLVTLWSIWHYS
T9 sequence (P23979 with tags, fused parts or gaps isoform P23979-2 DELINS338-452P limits assumed): as the sequence (P23979 with tags, fused parts or gaps isoform P23979-2 DELINS338-452A limits assumed) above, with A315P counted along it
T5 sequence (P23979 with tags, fused parts or gaps): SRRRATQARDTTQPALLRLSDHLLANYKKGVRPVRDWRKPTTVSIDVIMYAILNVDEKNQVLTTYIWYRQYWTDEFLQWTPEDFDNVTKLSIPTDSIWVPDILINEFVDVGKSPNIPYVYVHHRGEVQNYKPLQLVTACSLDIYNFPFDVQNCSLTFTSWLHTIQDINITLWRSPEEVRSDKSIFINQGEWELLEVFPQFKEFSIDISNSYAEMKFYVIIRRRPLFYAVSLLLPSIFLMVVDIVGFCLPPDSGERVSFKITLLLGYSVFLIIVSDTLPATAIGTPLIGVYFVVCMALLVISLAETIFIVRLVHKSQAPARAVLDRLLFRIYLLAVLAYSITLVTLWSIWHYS
T2 sequence (P23979 with tags, fused parts or gaps isoform P23979-2 limits assumed): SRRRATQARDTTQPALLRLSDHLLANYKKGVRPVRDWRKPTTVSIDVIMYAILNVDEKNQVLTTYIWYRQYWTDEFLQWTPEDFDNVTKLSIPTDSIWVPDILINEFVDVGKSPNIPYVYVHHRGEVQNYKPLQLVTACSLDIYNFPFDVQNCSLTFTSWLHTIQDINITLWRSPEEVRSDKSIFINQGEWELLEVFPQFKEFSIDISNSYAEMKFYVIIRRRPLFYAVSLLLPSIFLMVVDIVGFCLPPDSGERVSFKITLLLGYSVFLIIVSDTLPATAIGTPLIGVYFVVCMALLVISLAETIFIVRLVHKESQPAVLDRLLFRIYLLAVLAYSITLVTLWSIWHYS
T7 sequence (P23979 with tags, fused parts or gaps isoform P23979-2 DELINS338-452GSA limits assumed): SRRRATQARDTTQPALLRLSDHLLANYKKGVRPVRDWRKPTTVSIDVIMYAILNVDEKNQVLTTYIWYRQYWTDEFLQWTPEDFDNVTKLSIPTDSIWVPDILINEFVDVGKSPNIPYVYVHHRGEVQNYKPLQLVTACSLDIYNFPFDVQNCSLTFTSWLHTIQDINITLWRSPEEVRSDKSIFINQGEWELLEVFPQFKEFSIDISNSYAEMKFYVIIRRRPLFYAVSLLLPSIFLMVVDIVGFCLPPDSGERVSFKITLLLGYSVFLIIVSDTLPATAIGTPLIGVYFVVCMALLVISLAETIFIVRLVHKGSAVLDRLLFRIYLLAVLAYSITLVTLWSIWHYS
T3 sequence (P23979 with tags, fused parts or gaps): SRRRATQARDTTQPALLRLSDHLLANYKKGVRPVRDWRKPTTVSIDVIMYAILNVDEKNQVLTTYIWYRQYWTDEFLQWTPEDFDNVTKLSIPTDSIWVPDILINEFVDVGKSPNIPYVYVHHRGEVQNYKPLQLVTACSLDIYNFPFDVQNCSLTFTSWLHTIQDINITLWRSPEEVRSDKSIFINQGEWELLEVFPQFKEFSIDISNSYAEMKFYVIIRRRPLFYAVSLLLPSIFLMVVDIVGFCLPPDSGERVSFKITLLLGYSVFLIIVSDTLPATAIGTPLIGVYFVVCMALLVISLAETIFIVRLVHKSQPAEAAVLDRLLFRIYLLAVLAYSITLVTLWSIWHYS

With `NCCc1c[nH]c2ccc(O)cc12` [5-HT, 5-hydroxytryptamine], the “10–90% Activation rise time” value in experiment [1] (10 µM 5-HT) turned out to be 797 ± 108 ms. Moreover, in [1] (10 µM 5-HT, Xenopus oocytes, -60 mV), the “Imax (peak current)” value was determined as 2500±500 nA. Further, in experiment [1] (prolonged 10 µM 5-HT, may be limited by solution exchange), the “Desensitization time constant τ” value came out at 6 ± 1 s. Also, the 5-HT induced current result is reported as “no currents were observed” in [2]; “large currents” in [3]; “large currents” in experiment [4]; 50±12 nA in [7]; 730±45 nA in experiment [8]; “neither construct generated any 5-HT induced currents” in experiment [9]. In addition, in experiment [5], the Peak current came to 87±30 nA. In experiment [6], the “Channel function (5-HT induced current)” value is listed as “non-functional channels”. On 5-HT3A-A1, the “Radiolabeled 5-HT binding to oocytes” value is reported as “undetectable”.
